From patent US5939399A, “Polyene antibiotics, 3874 H1 to H6, processes for their preparation and use” (Hoechst Aktiengesellschaft, priority 1996, dated 1999)
Converted amounts (≈) assume the structure as drawn.

Experiments:
Chemical stability = format: physicochemical; settings: for Stability (unstable in / on exposure to): acidic and strongly alkaline solution, light, heat and oxygen; for Stability (stable in): neutral and weakly alkaline medium
[1] = Solubility in organic solvents; format: physicochemical
test microbes = experiment: Agar diffusion test, zones of inhibition; format: cell-based; settings: for Zone of inhibition (diameter) / zone of inhibition at 25 µg/mL / zone of inhibition at 50 µg/mL / zone of inhibition at 100 µg/mL / zone of inhibition at 200 µg/mL: agar layer; for zone of inhibition at 25 µg/mL: concentration 0.025 mg/mL; for zone of inhibition at 25 µg/mL / zone of inhibition at 50 µg/mL / zone of inhibition at 100 µg/mL / zone of inhibition at 200 µg/mL / zone of inhibition at 6.3 µg/mL / zone of inhibition at 12.5 µg/mL: read-out: Zone of inhibition (diameter); for zone of inhibition at 50 µg/mL: concentration 0.05 mg/mL; for zone of inhibition at 100 µg/mL: concentration 0.1 mg/mL; for zone of inhibition at 200 µg/mL: concentration 0.2 mg/mL
Description: The superiority of the antibiotics according to the invention is shown particularly in so-called diffusion tests in which the compounds diffuse in an agar layer containing the test microbes. The diameter of the zones of inhibition is then a measure of the activity of the antibiotics (Table 3).

C. neoformans ATCC 90112 = experiment: In vitro microdilution test in RPMI 1640 medium; format: cell-based; settings: Cryptococcus neoformans, ATCC90112, yeast C. neoformans ATCC 90112, 48 h at 35° C., read-out: Minimum inhibitory concentration MIC
Description: (§1) In vitro activity on dermatophytes, yeasts and molds
(§2) (microdilution test in RPMI 1640 medium)
(§3) Incubation: 48 h at 35° C. (yeasts) or 6 days at 30° C. (dermatophytes and molds)

C. tropicalis 201/201 = experiment: In vitro microdilution test in RPMI 1640 medium; format: cell-based; settings: Candida tropicalis, yeast C. tropicalis 201/201, 48 h at 35° C., read-out: Minimum inhibitory concentration MIC
Description: as §1, §2, §3

C. glabrata ATCC 90030 = experiment: In vitro microdilution test in RPMI 1640 medium; format: cell-based; settings: Nakaseomyces glabratus, ATCC90030, yeast C. glabrata ATCC 90030, 48 h at 35° C., read-out: Minimum inhibitory concentration MIC
Description: as §1, §2, §3

A. niger ATCC 16404 = experiment: In vitro microdilution test in RPMI 1640 medium; format: cell-based; settings: Aspergillus niger, ATCC16404, 144 h, mold A. niger ATCC 16404, 6 days at 30° C., read-out: Minimum inhibitory concentration MIC
Description: as §1, §2, §3

[2] = system: C. parapsilosis ATCC 90018; experiment: In vitro microdilution test in RPMI 1640 medium; format: cell-based; settings: Lodderomyces parapsilosis, ATCC90018, yeast C. parapsilosis ATCC 90018, 48 h at 35° C., read-out: Minimum inhibitory concentration MIC
Description: as §1, §2, §3

T. mentagrophytes 100/25 = experiment: In vitro microdilution test in RPMI 1640 medium; format: cell-based; settings: Trichophyton mentagrophytes, 144 h, dermatophyte T. mentagrophytes 100/25, 6 days at 30° C., read-out: Minimum inhibitory concentration MIC
Description: as §1, §2, §3

C. albicans ATCC 90029 = experiment: In vitro microdilution test in RPMI 1640 medium; format: cell-based; settings: Candida albicans, ATCC90029, yeast C. albicans ATCC 90029, 48 h at 35° C., read-out: Minimum inhibitory concentration MIC
Description: as §1, §2, §3

C. tropicalis 201/202 = experiment: In vitro microdilution test in RPMI 1640 medium; format: cell-based; settings: Candida tropicalis, yeast C. tropicalis 201/202, 48 h at 35° C., read-out: Minimum inhibitory concentration MIC
Description: as §1, §2, §3

C. albicans ATCC 90028 = experiment: In vitro microdilution test in RPMI 1640 medium; format: cell-based; settings: Candida albicans, ATCC90028, yeast C. albicans ATCC 90028, 48 h at 35° C., read-out: Minimum inhibitory concentration MIC
Description: as §1, §2, §3

E. floccosum 190/143 = experiment: In vitro microdilution test in RPMI 1640 medium; format: cell-based; settings: Epidermophyton floccosum, 144 h, dermatophyte E. floccosum 190/143, 6 days at 30° C., read-out: Minimum inhibitory concentration MIC
Description: as §1, §2, §3

A. flavus ATCC 9643 = experiment: In vitro microdilution test in RPMI 1640 medium; format: cell-based; settings: Aspergillus flavus, ATCC9643, 144 h, mold A. flavus ATCC 9643, 6 days at 30° C., read-out: Minimum inhibitory concentration MIC
Description: as §1, §2, §3

A. fumigatus ATCC 9197 = experiment: In vitro microdilution test in RPMI 1640 medium; format: cell-based; settings: Aspergillus fumigatus, ATCC9197, 144 h, mold A. fumigatus ATCC 9197, 6 days at 30° C., read-out: Minimum inhibitory concentration MIC
Description: as §1, §2, §3

C. krusei Berlin 1 = experiment: In vitro microdilution test in RPMI 1640 medium; format: cell-based; settings: Pichia kudriavzevii, BERLIN1, yeast C. krusei Berlin 1, 48 h at 35° C., read-out: Minimum inhibitory concentration MIC
Description: as §1, §2, §3

T. rubrum 101/58 = experiment: In vitro microdilution test in RPMI 1640 medium; format: cell-based; settings: Trichophyton rubrum, 144 h, dermatophyte T. rubrum 101/58, 6 days at 30° C., read-out: Minimum inhibitory concentration MIC
Description: as §1, §2, §3

[3] = system: C. pseudotropicalis 202/218; experiment: In vitro microdilution test in RPMI 1640 medium; format: cell-based; settings: Kluyveromyces marxianus, yeast C. pseudotropicalis 202/218, 48 h at 35° C., read-out: Minimum inhibitory concentration MIC
Description: as §1, §2, §3

C. krusei 203/230 = experiment: In vitro microdilution test in RPMI 1640 medium; format: cell-based; settings: Pichia kudriavzevii, yeast C. krusei 203/230, 48 h at 35° C., read-out: Minimum inhibitory concentration MIC
Description: as §1, §2, §3

C. glabrata Berlin 12 = experiment: In vitro microdilution test in RPMI 1640 medium; format: cell-based; settings: Nakaseomyces glabratus, BERLIN12, yeast C. glabrata Berlin 12, 48 h at 35° C., read-out: Minimum inhibitory concentration MIC
Description: as §1, §2, §3

[4] = Binding to ergosterol compared with cholesterol

Q: For `CNc1ccc(C(=O)CC(O)CCC(C)C2OC(=O)CC(O)CC(O)CCCC(O)CC(O)CC(O)CC3(O)CC(O)C(C(=O)O)C(CC(OC4OC(C)C(O)C(N)C4O)/C=C/C=C/C=C/C=C\C=C/C=C/C=C/C2C)O3)cc1` (stereo not drawn) [3874 H2], which “Stability (unstable in / on exposure to)” value (Chemical stability) is on record?
A: The value was “unstable in acidic and strongly alkaline solution and on exposure to light, heat and oxygen”.

Q: And the “Stability (stable in)” value (Chemical stability)?
A: The value was “Stable in neutral and weakly alkaline medium”.

Q: What about the Solubility [1] of the same compound?
A: The Solubility was “soluble in methanol, acetonitrile and chloroform”.

Q: What does the source list for `C[C@@H]1[C@H](O)[C@@H](C)/C=C/C=C/C=C/C=C/C=C/C=C/C=C/[C@H](O[C@@H]2O[C@H](C)[C@@H](O)[C@H](N)[C@@H]2O)C[C@@H]2O[C@](O)(C[C@@H](O)C[C@@H](O)[C@H](O)CC[C@@H](O)C[C@@H](O)CC(=O)O[C@H]1C)C[C@H](O)[C@H]2C(=O)O` [Amphotericin B, amphotericin B, reference compound]?
A: Zone of inhibition (diameter) (test microbes; concentration 0.0063 mg/mL): .o slashed.; Zone of inhibition (diameter) (test microbes; concentration 0.0125 mg/mL): .o slashed.; zone of inhibition at 25 µg/mL (test microbes): 8 mm; zone of inhibition at 50 µg/mL (test microbes): 10 mm; zone of inhibition at 100 µg/mL (test microbes): 12 mm; zone of inhibition at 200 µg/mL (test microbes): 14 mm; Solubility [1]: only very low solubility in the said solvents and others

Q: Which results are given for `CC1/C=C/C=C/C=C\C=C/C=C/C=C/C=C/C(OC2OC(C)C(O)C(N)C2O)CC2OC(O)(CC(O)CC(O)CC(O)CCCC(O)CC(O)CC(=O)OC1C(C)CCC(O)CC(=O)c1ccc(N)cc1)CC(O)C2C(=O)O` (stereo not drawn) [3874 H1]?
A: Stability (unstable in / on exposure to) (Chemical stability): unstable in acidic and strongly alkaline solution and on exposure to light, heat and oxygen; Stability (stable in) (Chemical stability): Stable in neutral and weakly alkaline medium; MIC (C. neoformans ATCC 90112): 2 µg/mL (≈ 1.82 µM); MIC (C. tropicalis 201/201): 2 µg/mL (≈ 1.82 µM); MIC (C. glabrata ATCC 90030): 4 µg/mL (≈ 3.64 µM); MIC (A. niger ATCC 16404): 2 µg/mL (≈ 1.82 µM); MIC [2]: 4 µg/mL (≈ 3.64 µM); MIC (T. mentagrophytes 100/25): 4 µg/mL (≈ 3.64 µM); MIC (C. albicans ATCC 90029): 2 µg/mL (≈ 1.82 µM); MIC (C. tropicalis 201/202): 2 µg/mL (≈ 1.82 µM); MIC (C. albicans ATCC 90028): 2 µg/mL (≈ 1.82 µM); MIC (E. floccosum 190/143): 16 µg/mL (≈ 14.6 µM); MIC (A. flavus ATCC 9643): 8 µg/mL (≈ 7.28 µM); MIC (A. fumigatus ATCC 9197): 4 µg/mL (≈ 3.64 µM); MIC (C. krusei Berlin 1): 2 µg/mL (≈ 1.82 µM); MIC (T. rubrum 101/58): 16 µg/mL (≈ 14.6 µM); MIC [3]: 2 µg/mL (≈ 1.82 µM); MIC (C. krusei 203/230): 4 µg/mL (≈ 3.64 µM); MIC (C. glabrata Berlin 12): 2 µg/mL (≈ 1.82 µM); zone of inhibition at 25 µg/mL (test microbes): 21 mm; zone of inhibition at 50 µg/mL (test microbes): 24 mm; zone of inhibition at 100 µg/mL (test microbes): 25 mm; zone of inhibition at 200 µg/mL (test microbes): 26 mm; zone of inhibition at 6.3 µg/mL (test microbes): 17 mm; zone of inhibition at 12.5 µg/mL (test microbes): 19 mm; Solubility [1]: soluble in methanol, acetonitrile and chloroform

Q: With `C/C=C/C=C/C(=O)CC(O)CCC(C)C1OC(=O)CC(O)CC(O)CCCC(O)CC(O)CC(O)CC2(O)CC(O)C(C(=O)O)C(CC(OC3OC(C)C(O)C(N)C3O)/C=C/C=C/C=C/C=C\C=C/C=C/C=C/C1C)O2` (stereo not drawn) [3874 H3] as the compound, how does the “Stability (unstable in / on exposure to)” value (Chemical stability) read?
A: The value was “unstable in acidic and strongly alkaline solution and on exposure to light, heat and oxygen”.

Q: And the “Stability (stable in)” value (Chemical stability)?
A: The value was “Stable in neutral and weakly alkaline medium”.

Q: And the MIC (C. neoformans ATCC 90112)?
A: Its MIC is 2 µg/mL (≈ 1.86 µM).

Q: What about the MIC (C. tropicalis 201/201) of the same compound?
A: The MIC was 4 µg/mL (≈ 3.72 µM).

Q: What about the MIC (C. glabrata ATCC 90030) of the same compound?
A: The MIC was 4 µg/mL (≈ 3.72 µM).

Q: What about the MIC (A. niger ATCC 16404) of the same compound?
A: The MIC was 8 µg/mL (≈ 7.45 µM).

Q: And the MIC [2]?
A: The MIC was 4 µg/mL (≈ 3.72 µM).

Q: And the MIC (T. mentagrophytes 100/25)?
A: The MIC was 8 µg/mL (≈ 7.45 µM).

Q: And the MIC (C. albicans ATCC 90029)?
A: The MIC was 4 µg/mL (≈ 3.72 µM).

Q: What about the MIC (C. tropicalis 201/202) of the same compound?
A: Its MIC is 4 µg/mL (≈ 3.72 µM).

Q: What about the MIC (C. albicans ATCC 90028) of the same compound?
A: Its MIC is 4 µg/mL (≈ 3.72 µM).

Q: What about the MIC (E. floccosum 190/143) of the same compound?
A: Its MIC is 16 µg/mL (≈ 14.9 µM).

Q: And the MIC (A. flavus ATCC 9643)?
A: The MIC was 16 µg/mL (≈ 14.9 µM).

Q: What about the MIC (A. fumigatus ATCC 9197) of the same compound?
A: The MIC was 4 µg/mL (≈ 3.72 µM).

Q: What about the MIC (C. krusei Berlin 1) of the same compound?
A: The MIC was 2 µg/mL (≈ 1.86 µM).

Q: What about the MIC (T. rubrum 101/58) of the same compound?
A: Its MIC is 16 µg/mL (≈ 14.9 µM).

Q: And the MIC [3]?
A: Its MIC is 4 µg/mL (≈ 3.72 µM).

Q: What about the MIC (C. krusei 203/230) of the same compound?
A: Its MIC is 4 µg/mL (≈ 3.72 µM).

Q: And the MIC (C. glabrata Berlin 12)?
A: Its MIC is 4 µg/mL (≈ 3.72 µM).

Q: What about the zone of inhibition at 25 µg/mL (test microbes) of the same compound?
A: Its zone of inhibition at 25 µg/mL is 14 mm.

Q: And the zone of inhibition at 50 µg/mL (test microbes)?
A: The zone of inhibition at 50 µg/mL was 18 mm.

Q: What about the zone of inhibition at 100 µg/mL (test microbes) of the same compound?
A: The zone of inhibition at 100 µg/mL was 20 mm.

Q: And the zone of inhibition at 200 µg/mL (test microbes)?
A: The zone of inhibition at 200 µg/mL was 22 mm.

Q: What about the zone of inhibition at 6.3 µg/mL (test microbes) of the same compound?
A: The zone of inhibition at 6.3 µg/mL was 12 mm.

Q: And the zone of inhibition at 12.5 µg/mL (test microbes)?
A: Its zone of inhibition at 12.5 µg/mL is 13 mm.

Q: What about the Solubility [1] of the same compound?
A: Its Solubility is “soluble in methanol and other lower alcohols, acetonitrile and chloroform”.

Q: What about the “Binding to ergosterol versus cholesterol” value [4] of the same compound?
A: Its value is “bind more strongly to ergosterol than to cholesterol”.
